In brackets after ≈: the same amount, converted by molar mass. Activity calls are given as the source filed them. The rule behind the calls is not given here.
Columns and labels:
Escherichia coli = experiment: Antibacterial activity against Escherichia coli after 24 hrs micro dilution assay; assay type: functional
Pseudomonas aeruginosa = experiment: Antibacterial activity against Pseudomonas aeruginosa after 24 hrs micro dilution assay; assay type: functional
Staphylococcus aureus = experiment: Antibacterial activity against Staphylococcus aureus after 24 hrs micro dilution assay; assay type: functional
[1] = tested on: Staphylococcus epidermidis; experiment: Antibacterial activity against Staphylococcus epidermidis after 24 hrs micro dilution assay; assay type: functional
Candida albicans = experiment: Antifungal activity against Candida albicans MTCC 3017 after 24 hrs micro dilution assay; assay type: functional
Nakaseomyces glabratus = experiment: Antifungal activity against Candida glabrata MTCC 3019 after 24 hrs micro dilution assay; assay type: functional
Geotrichum candidum = experiment: Antifungal activity against Geotrichum candidum NCIM 980 after 24 hrs micro dilution assay; assay type: functional
[2] = Toxicity in human RBC assessed as hemolysis at 1024 ug/ml; assay type: cell-based, Erythrocyte; details: for Activity: erythrocyte; for hemolysis at 1024 ug/ml: red blood cells, read-out: Activity
[3] = Escherichia coli, 24 h, read-out: MIC
[4] = Pseudomonas aeruginosa, 24 h, read-out: MIC
[5] = Staphylococcus aureus, 24 h, read-out: MIC
[6] = Staphylococcus epidermidis, 24 h, read-out: MIC

Compound	MIC (Escherichia coli; [3]) [µg/mL]	MIC (Pseudomonas aeruginosa; [4]) [µg/mL]	MIC (Staphylococcus aureus; [5]) [µg/mL]	MIC [1, 6] [µg/mL]	MIC (Candida albicans; MTCC 3017, 24 h) [µg/mL]	MIC (Nakaseomyces glabratus; MTCC 3019, 24 h) [µg/mL]	MIC (Geotrichum candidum; NCIM 980, 24 h) [µg/mL]	Activity [2]	MIC (Candida albicans)	MIC (Nakaseomyces glabratus)	hemolysis at 1024 ug/ml [2] [%]	MIC (Escherichia coli)	MIC (Pseudomonas aeruginosa)	MIC (Staphylococcus aureus)	MIC [1]	MIC (Geotrichum candidum)
Brc1ccc(CN[C@H]2CCCC[C@@H]2NCc2ccc(Br)cc2)cc1.Cl	0.008	0.008	0.002	0.016	0.065	0.032	0.032	Non-toxic	–	–	–	–	–	–	–	–
Cl.FC(F)(F)c1cccc(CNC2CCCCC2NCc2cccc(C(F)(F)F)c2)c1 (stereo not given)	0.065	0.25	0.016	0.032	0.125	0.25	0.125	Non-toxic	–	–	–	–	–	–	–	–
Cc1ccccc1CNC1CCCCC1NCc1ccccc1C.Cl (stereo not given)	0.125	0.125	0.25	0.25	–	–	0.25	Non-toxic	inactive	inactive	–	–	–	–	–	–
Cl.Clc1cccc(CNC2CCCCC2NCc2cccc(Cl)c2)c1 (stereo not given)	0.032	0.008	0.032	0.032	0.125	0.125	0.065	–	–	–	9.68	–	–	–	–	–
Cc1ccc(CNC2CCCCC2NCc2ccc(C)cc2)cc1.Cl (stereo not given)	0.25	0.125	0.125	0.25	–	–	0.25	–	inactive	inactive	19.2	–	–	–	–	–
CCc1ccc(CNC2CCCCC2NCc2ccc(CC)cc2)cc1.Cl (stereo not given)	0.008	0.004	0.008	0.008	0.032	0.032	0.032	–	–	–	38.3	–	–	–	–	–
CN(C)[C@@H]1C(O)=C(C(N)=O)C(=O)[C@@]2(O)C(O)=C3C(=O)c4c(O)cccc4[C@@](C)(O)[C@H]3C[C@@H]12 [TETRACYCLINE]	0.001 (≈ 0.00225 µM)	–	0.001 (≈ 0.00225 µM)	0.002 (≈ 0.0045 µM)	–	–	–	–	–	–	–	–	–	–	–	–
COc1ccc(CNC2CCCCC2NCc2ccc(OC)cc2)cc1.Cl (stereo not given)	–	–	–	–	–	–	–	Non-toxic	–	–	–	inactive	inactive	inactive	inactive	–
CCCCc1ccc(CNC2CCCCC2NCc2ccc(CCCC)cc2)cc1.Cl (stereo not given)	0.008	0.0005	0.008	0.008	0.008	0.008	0.008	–	–	–	7.68	–	–	–	–	–
Brc1cccc(CN[C@H]2CCCC[C@@H]2NCc2cccc(Br)c2)c1.Cl (racemic)	–	–	–	–	–	–	–	–	–	–	–	0.016 µg/mL	0.032 µg/mL	0.008 µg/mL	0.032 µg/mL	–
Cl.Clc1ccc(CNC2CCCCC2NCc2ccc(Cl)cc2Cl)c(Cl)c1 (racemic)	0.032	0.016	0.016	0.032	–	–	–	–	–	–	–	–	–	–	–	–
Cl.O=[N+]([O-])c1ccccc1CNC1CCCCC1NCc1ccccc1[N+](=O)[O-] (stereo not given)	–	–	–	–	–	–	–	Non-toxic	–	–	–	inactive	inactive	inactive	inactive	–
Brc1ccccc1CNC1CCCCC1NCc1ccccc1Br.Cl (stereo not given)	–	–	–	–	–	–	–	Non-toxic	–	–	–	inactive	inactive	inactive	inactive	–
Cl.FC(F)(F)c1ccc(CNC2CCCCC2NCc2ccc(C(F)(F)F)cc2)cc1 (stereo not given)	0.032	0.008	0.008	0.032	0.125	0.125	0.065	Non-toxic	–	–	–	–	–	–	–	–
Cl.Clc1ccc(CNC2CCCCC2NCc2ccc(Cl)cc2)cc1 (stereo not given)	0.008	0.008	0.008	0.008	0.125	0.125	0.032	Non-toxic	–	–	–	–	–	–	–	–
Cl.Clc1ccc(CN[C@H]2CCCC[C@@H]2NCc2ccc(Cl)cc2)cc1	0.032	0.032	0.032	0.032	–	–	–	–	–	–	4.8	–	–	–	–	–
Brc1ccc(CNC2CCCCC2NCc2ccc(Br)cc2)cc1.Cl (stereo not given)	0.25	0.032	0.016	0.032	0.125	0.125	0.032	Non-toxic	–	–	–	–	–	–	–	–

Compound	MIC (Escherichia coli; [3]) [µg/mL]	MIC (Pseudomonas aeruginosa; [4]) [µg/mL]	MIC (Staphylococcus aureus; [5]) [µg/mL]	MIC [1, 6] [µg/mL]	MIC (Candida albicans; MTCC 3017, 24 h) [µg/mL]	MIC (Nakaseomyces glabratus; MTCC 3019, 24 h) [µg/mL]	MIC (Geotrichum candidum; NCIM 980, 24 h) [µg/mL]	Activity [2]	MIC (Candida albicans)	MIC (Nakaseomyces glabratus)	hemolysis at 1024 ug/ml [2] [%]	MIC (Escherichia coli)	MIC (Pseudomonas aeruginosa)	MIC (Staphylococcus aureus)	MIC [1]	MIC (Geotrichum candidum)
C[C@@H]1[C@H](O)[C@@H](C)/C=C/C=C/C=C/C=C/C=C/C=C/C=C/[C@H](O[C@@H]2O[C@H](C)[C@@H](O)[C@H](N)[C@@H]2O)C[C@@H]2O[C@](O)(C[C@@H](O)C[C@@H](O)[C@H](O)CC[C@@H](O)C[C@@H](O)CC(=O)O[C@H]1C)C[C@H](O)[C@H]2C(=O)O [AMPHOTERICIN B]	–	–	–	–	0.3 (≈ 0.325 µM)	50 (≈ 54.1 µM)	6.25 (≈ 6.76 µM)	–	–	–	–	–	–	–	–	–
Cl.FC(F)(F)c1cccc(CN[C@H]2CCCC[C@@H]2NCc2cccc(C(F)(F)F)c2)c1	0.032	0.008	0.016	0.065	–	0.125	0.125	–	inactive	–	3.7	–	–	–	–	–
Cl.FC(F)(F)c1ccc(CN[C@H]2CCCC[C@@H]2NCc2ccc(C(F)(F)F)cc2)cc1	0.032	0.008	0.016	0.032	0.125	0.065	0.065	Non-toxic	–	–	–	–	–	–	–	–
Cl.O=[N+]([O-])c1cccc(CNC2CCCCC2NCc2cccc([N+](=O)[O-])c2)c1 (stereo not given)	0.5	0.25	0.5	1	–	–	–	Non-toxic	–	–	–	–	–	–	–	–
CC(C)(C)c1ccc(CNC2CCCCC2NCc2ccc(C(C)(C)C)cc2)cc1.Cl (stereo not given)	0.008	0.0006	0.004	0.008	0.008	0.008	0.008	Non-toxic	–	–	–	–	–	–	–	–
Clc1ccccc1CNC1CCCCC1NCc1ccccc1Cl (stereo not given)	–	–	–	–	–	–	–	–	–	–	9.83	inactive	inactive	inactive	inactive	–
c1ccc(CNC2CCCCC2NCc2ccccc2)cc1 (stereo not given)	–	–	–	–	–	–	–	–	–	–	–	inactive	inactive	inactive	inactive	–
Cl.O=[N+]([O-])c1ccc(CNC2CCCCC2NCc2ccc([N+](=O)[O-])cc2)cc1 (stereo not given)	–	0.125	–	–	–	–	0.5	Non-toxic	inactive	inactive	–	inactive	–	inactive	inactive	–
Brc1cccc(CNC2CCCCC2NCc2cccc(Br)c2)c1.Cl (stereo not given)	0.065	0.25	0.008	0.065	0.125	0.25	0.065	Non-toxic	–	–	–	–	–	–	–	–
Cc1cccc(CNC2CCCCC2NCc2cccc(C)c2)c1.Cl (stereo not given)	0.125	0.065	0.032	0.25	–	–	0.25	–	inactive	inactive	4.78	–	–	–	–	–
Brc1cccc(CN[C@H]2CCCC[C@@H]2NCc2cccc(Br)c2)c1.Cl	0.032	–	0.008	0.032	0.125	0.065	0.065	Non-toxic	–	–	–	–	0.008 µg/mL	–	–	–
Cl.Clc1cccc(CN[C@H]2CCCC[C@@H]2NCc2cccc(Cl)c2)c1 (racemic)	0.032	0.065	–	0.032	0.125	–	0.032	–	–	inactive	–	–	–	inactive	–	–
CC(C)c1ccc(CNC2CCCCC2NCc2ccc(C(C)C)cc2)cc1.Cl (stereo not given)	0.004	0.0005	0.008	0.008	0.008	0.016	–	–	–	–	81.8	–	–	–	–	inactive
Cl.Fc1cccc(CNC2CCCCC2NCc2cccc(F)c2)c1 (stereo not given)	0.25	0.25	–	0.25	–	–	0.5	Non-toxic	inactive	inactive	–	–	–	inactive	–	–
Cl.FC(F)(F)c1ccccc1CNC1CCCCC1NCc1ccccc1C(F)(F)F (stereo not given)	0.25	0.032	0.065	0.065	0.5	–	0.5	Non-toxic	–	inactive	–	–	–	–	–	–
Cl.FC(F)(F)c1ccc(CNC2CCCCC2NCc2ccc(C(F)(F)F)cc2C(F)(F)F)c(C(F)(F)F)c1 (stereo not given)	–	–	–	–	–	–	–	Non-toxic	–	–	–	inactive	inactive	inactive	inactive	–
Cl.FC(F)(F)c1ccc(C(F)(F)F)c(CNC2CCCCC2NCc2cc(C(F)(F)F)ccc2C(F)(F)F)c1 (stereo not given)	–	–	–	–	–	–	–	Non-toxic	–	–	–	inactive	inactive	inactive	inactive	–

Reference: ChEMBL document CHEMBL1667746, “Synthesis, antimicrobial activity and structure-activity relationship study of N,N-dibenzyl-cyclohexane-1,2-diamine derivatives” (Eur J Med Chem, 2011)
